Series [1] relates to wild-type RePC (pyruvate carboxylase from R. etli). The series is described as follows: Pyruvate carboxylation activity, malate dehydrogenase coupled assay. In kind it is biochemical, Rhizobium etli.
Series [2] has as its target wild-type RePC (Rhizobium etli, UniProt Q2K340). In kind it is biochemical.
Series [3] concerns the target sheep kidney PC. As to conditions: noncompetitive with respect to MgATP, full forward reaction; ref [22]; cited from earlier work.
The test system of series [4] is PC from B. Thermodenitrificans. As to conditions: read-out: apparent Km for HCO3^−; presence of acetyl-CoA; ref [32]; cited from earlier work.
Substrate in series [5]: CC(=O)C(=O)O
The series is described as follows: purified protein, by the assay type. The following applies: other: (−) acetyl-CoA, 15 mM HCO3^−.

Where [6] appears, read: extrapolated to saturating phosphonoacetate.
The mark [7] stands for this setting: labelled substrate varied, others saturating, pH 7.5, 25° C, 0.25 mM acetyl-CoA.

For orientation: Ki means the dissociation constant of the complex between target and ligand, obtained from inhibition or displacement. Usually Km stands for the substrate concentration at which the rate is half of its maximum. What is called kcat is the maximal rate divided by the concentration of active sites.

Take `O=C(O)CP(=O)(O)O` [phosphonoacetate]: the “type of inhibition with respect to MgATP” value in series [1] is recorded as “noncompetitive”. For the same molecule, the “Kii (intercept inhibition constant)” value in series [1] (linear noncompetitive with respect to MgATP, eqn (9)) worked out at 18 ± 7 mM. In series [2], the “fold lower Kii for MgADP phosphorylation than for pyruvate carboxylation” value was found to be 890 fold; the “fold lower Kis for MgADP phosphorylation than for pyruvate carboxylation” value worked out at 100 fold; the “type of inhibition with respect to carbamoyl phosphate” value is recorded as “hyperbolic, noncompetitive inhibition”. Further, in series [2] (setting [6]), the “V/Km at saturating phosphonoacetate, % of the uninhibited reaction” value is given as 1.5% and the “Vmax at saturating phosphonoacetate, % of the uninhibited reaction” value was 1%. The “Kii (intercept inhibition constant)” value in series [2] (hyperbolic noncompetitive with respect to carbamoyl phosphate, eqn (10)) came out at 0.021 ± 0.001 mM. Also, the Ki in series [3] was 500 µM.

In the case of `O=C(O)O` [HCO3^−], in series [1] (setting [7]), the Km worked out at 10.8 ± 0.4 mM and the catalytic constant (kcat) was 11.7 ± 0.333 s⁻¹. Further, the Michaelis-Menten constant (Km) in series [4] is 16 mM.

B1: wild-type RePC (Rhizobium etli CFN 42) (protein)
chain: MPISKILVANRSEIAIRVFRAANELGIKTVAIWAEEDKLALHRFKADESYQVGRGPHLARDLGPIESYLSIDEVIRVAKLSGADAIHPGYGLLSESPEFVDACNKAGIIFIGPKADTMRQLGNKVAARNLAISVGVPVVPATEPLPDDMAEVAKMAAAIGYPVMLKASWGGGGRGMRVIRSEADLAKEVTEAKREAMAAFGKDEVYLEKLVERARHVESQILGDTHGNVVHLFERDCSVQRRNQKVVERAPAPYLSEAQRQELAAYSLKIAGATNYIGAGTVEYLMDADTGKFYFIEVNPRIQVEHTVTEVVTGIDIVKAQIHILDGAAIGTPQSGVPNQEDIRLNGHALQCRVTTEDPEHNFIPDYGRITAYRSASGFGIRLDGGTSYSGAIITRYYDPLLVKVTAWAPNPLEAISRMDRALREFRIRGVATNLTFLEAIIGHPKFRDNSYTTRFIDTTPELFQQVKRQDRATKLLTYLADVTVNGHPEAKDRPKPLENAARPVVPYANGNGVKDGTKQLLDTLGPKKFGEWMRNEKRVLLTDTTMRDGHQSLLATRMRTYDIARIAGTYSHALPNLLSLECWGGATFDVSMRFLTEDPWERLALIREGAPNLLLQMLLRGANGVGYTNYPDNVVKYFVRQAAKGGIDLFRVFDCLNWVENMRVSMDAIAEENKLCEAAICYTGDILNSARPKYDLKYYTNLAVELEKAGAHIIAVKDMAGLLKPAAAKVLFKALREATGLPIHFHTHDTSGIAAATVLAAVEAGVDAVDAAMDALSGNTSQPCLGSIVEALSGSERDPGLDPAWIRRISFYWEAVRNQYAAFESDLKGPASEVYLHEMPGGQFTNLKEQARSLGLETRWHQVAQAYADANQMFGDIVKVTPSSKVVGDMALMMVSQDLTVADVVSPDREVSFPESVVSMLKGDLGQPPSGWPEALQKKALKGEKPYTVRPGSLLKEADLDAERKVIEKKLEREVSDFEFASYLMYPKVFTDFALASDTYGPVSVLPTPAYFYGLADGEELFADIEKGKTLVIVNQAVSATDSQGMVTVFFELNGQPRRIKVPDRAHGATGAAVRRKAEPGNAAHVGAPMPGVISRVFVSSGQAVNAGDVLVSIEAMKMETAIHAEKDGTIAEVLVKAGDQIDAKDLLAVYGG
For the molecule B1, in series [5], the Km was 0.013 ± 0.002 mM and the turnover number (kcat) is 0.0253 ± 0.0005 s⁻¹.

Values taken from publication PMC3210919 (Biochemistry, 2011).
